# Values quoted from earlier work, collected in PMC8583936, “Machine Learning Assisted Approach for Finding Novel High Activity Agonists of Human Ectopic Olfactory Receptors” (International Journal of Molecular Sciences, 2021).
# Target: T1, OR1A1 (Homo sapiens, UniProt Q9P1Q5)
# T1 sequence (Q9P1Q5 1-309): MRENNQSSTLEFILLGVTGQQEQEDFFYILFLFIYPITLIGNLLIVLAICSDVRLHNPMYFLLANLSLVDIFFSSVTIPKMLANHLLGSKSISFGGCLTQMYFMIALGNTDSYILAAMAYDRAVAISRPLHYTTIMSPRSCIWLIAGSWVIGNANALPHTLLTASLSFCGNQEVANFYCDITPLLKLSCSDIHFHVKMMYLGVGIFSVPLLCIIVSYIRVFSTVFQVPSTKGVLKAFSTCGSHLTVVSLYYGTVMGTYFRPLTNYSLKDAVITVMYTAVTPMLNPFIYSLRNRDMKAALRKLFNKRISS
# Conditions: Table S1; ref Supplement references [1]-[9] as printed after each odorant name; cited from earlier work
row,SMILES,Class (agonist / non-agonist / conflicting info.) for OR1A1
1,C=CC(O)CCCCC (racemic) [(R/S)-octen-3-ol],Agonist
2,CCCCC1CCC(=O)O1 (racemic) [(R/S)-γ-Octalactone],Non-agonist
3,"CCC(C(=O)O)c1ccccc1 (single isomer, unassigned; (+)) [(+)-2-Phenylbutyric acid]",Non-agonist
4,"CC1CC[C@H](C(C)C)[C@@H](O)C1 (single isomer, unassigned; (+)) [(+)-Menthol]",Non-agonist
5,"CCC(C(=O)O)c1ccccc1 (single isomer, unassigned; (-)) [(-)-2-Phenylbutyric acid]",Non-agonist
6,"C=C(C)C1CC=C(C)C(=O)C1 (single isomer, unassigned; (-)) [(-)-Carvone]",Agonist
7,"CC1=CCC2CC1C2(C)C (single isomer, unassigned; (-)) [(-)-alpha-Pinene]",Non-agonist
8,"C=C1CCC2CC1C2(C)C (single isomer, unassigned; (-)) [(-)-beta-Pinene]",Non-agonist
9,"CCCCCCCC(OC)OC [1,1-dimethoxy-octane]",Non-agonist
10,"CC(S)CCS (stereo not drawn) [1,3-butane dithiol]",Non-agonist
11,"CC12CCC(CC1)C(C)(C)O2 [1,8-cineole]",Non-agonist
12,CCCCO [1-butanol],Non-agonist
13,CCCCCCCCCCO [1-decanol],Agonist
14,C=CC(=O)CCCCC [1-octen-3-one],Conflicting info.
15,CC1=CCC(C(C)(C)S)CC1 (stereo not drawn) [1-p-Menthene-8-thiol],Non-agonist
16,CCCO [1-propanol],Non-agonist
17,CCCCCCCCCCCO [1-undecanol],Non-agonist
18,"CCc1ncc(C)nc1CC [2,3-dietyl-5-methylpyrazine]",Non-agonist
19,"CCCC(=O)C(C)=O [2,3-hexanedione]",Non-agonist
20,"CC1=NC(C)SC1C (stereo not drawn) [2,4,5-trimethyl-2,5-dihydro-1,3-thiazole]",Non-agonist
21,"CCCC/C=C\C=C\C=O [2,4-nonadienal, (2e,4z)-]",Non-agonist

row,SMILES,Class (agonist / non-agonist / conflicting info.) for OR1A1
1,"COc1cccc(OC)c1O [2,6-dimethoxyphenol]",Non-agonist
2,CC(=O)C1=NCCS1 [2-Acetyl-2-thiazoline],Non-agonist
3,CC(=O)c1ccco1 [2-Furyl methyl ketone],Non-agonist
4,CCc1ccc(O)c(OC)c1 [2-Methoxy-4-ethylphenol],Non-agonist
5,COc1ccc(C)cc1O [2-Methoxy-5-methylphenol],Non-agonist
6,Cc1occc1S [2-Methyl-3-furanthiol],Non-agonist
7,CCC(S)C(C)CO (stereo not drawn) [2-Methyl-3-sulfanylpentan-1-ol],Non-agonist
8,CCC(C)COC(C)=O (stereo not drawn) [2-Methylbutyl acetate],Non-agonist
9,CC(=O)OCCc1ccccc1 [2-Phenylethyl acetate],Agonist
10,CCC(=O)C(C)S (stereo not drawn) [2-Sulfanylpentan-3-one],Non-agonist
11,CC(=O)c1cnccn1 [2-acetylpyrazine],Non-agonist
12,O=C1Cc2ccccc2O1 [2-coumaranone],Non-agonist
13,"CCCCCCC/C=C/C=O [2-decenal, (2e)-]",Non-agonist
14,CCCCCC/C=C/C=O [2-enonenal],Non-agonist
15,CCOc1nccs1 [2-ethoxythiazole],Non-agonist
16,CCC1(O)C2(C)CCC(C2)C1(C)C (stereo not drawn) [2-ethylfenchol],Conflicting info.
17,CCCCCC(C)O (stereo not drawn) [2-heptanol],Non-agonist
18,CCCCCC(C)=O [2-heptanone],Conflicting info.
19,"CCC/C=C/C=O [2-hexenal, (2e)-]",Non-agonist
20,COc1nccnc1CC(C)C [2-isobutyl-3-methoxypyrazine],Non-agonist
21,COc1nccnc1C(C)C [2-isopropyl-3-methoxypyrazine],Non-agonist

# Same assay, conditions: cited from earlier work
row,SMILES,Class (agonist / non-agonist / conflicting info.) for OR1A1
1,CC(=O)c1ccccc1N [2'-aminoacetophenone],Non-agonist
2,"CCC(=O)C(C)=O [2,3-pentanedione]",Non-agonist
3,"Cc1ccc(O)c(C)c1 [2,4-dimethylphenol]",Non-agonist
4,"Cc1cccc(C)c1O [2,6-dimethylphenol]",Non-agonist
5,O=C(O)Cc1ccccc1 [2-Phenylacetic acid],Non-agonist
6,CCC(C)=O [2-butanone],Non-agonist
7,CCCCC(C)=O [2-hexanone],Non-agonist

# Target: T2, OR2W1 (Homo sapiens, UniProt Q9Y3N9)
# T2 sequence (Q9Y3N9 1-320): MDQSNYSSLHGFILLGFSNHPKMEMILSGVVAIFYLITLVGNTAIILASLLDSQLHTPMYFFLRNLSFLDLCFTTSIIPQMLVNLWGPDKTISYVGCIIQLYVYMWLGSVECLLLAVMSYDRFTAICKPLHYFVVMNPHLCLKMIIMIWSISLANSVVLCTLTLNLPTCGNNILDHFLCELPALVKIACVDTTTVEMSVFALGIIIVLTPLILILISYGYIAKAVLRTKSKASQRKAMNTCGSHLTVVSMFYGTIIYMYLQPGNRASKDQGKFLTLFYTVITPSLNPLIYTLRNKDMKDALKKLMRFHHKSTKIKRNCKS
# Conditions: Table S2; ref Supplement references [2]-[12] as printed after each odorant name; cited from earlier work
row,SMILES,Class (agonist / non-agonist / antagonist / conflicting info.) for OR2W1
1,C=CC(O)CCCCC (racemic) [(R/S)-octen-3-ol],Agonist
2,CCCCC1CCC(=O)O1 (racemic) [(R/S)-γ-Octalactone],Agonist
3,"CCC(C(=O)O)c1ccccc1 (single isomer, unassigned; (+)) [(+)-2-Phenylbutyric acid]",Non-agonist
4,"CC1CC[C@H](C(C)C)[C@@H](O)C1 (single isomer, unassigned; (+)) [(+)-Menthol]",Conflicting info.
5,"CCC(C(=O)O)c1ccccc1 (single isomer, unassigned; (-)) [(-)-2-Phenylbutyric acid]",Non-agonist
6,"C=C(C)C1CC=C(C)C(=O)C1 (single isomer, unassigned; (-)) [(-)-Carvone]",Agonist
7,"CC1=CCC2CC1C2(C)C (single isomer, unassigned; (-)) [(-)-alpha-Pinene]",Non-agonist
8,"C=C1CCC2CC1C2(C)C (single isomer, unassigned; (-)) [(-)-beta-Pinene]",Non-agonist
9,"CCCCCCCC(OC)OC [1,1-dimethoxy-octane]",Agonist
10,"CC(S)CCS (stereo not drawn) [1,3-butane dithiol]",Non-agonist
11,"CC12CCC(CC1)C(C)(C)O2 [1,8-cineole]",Non-agonist
12,CCCCO [1-butanol],Non-agonist
13,CCCCCCCCCCO [1-decanol],Agonist
14,C=CC(=O)CCCCC [1-octen-3-one],Non-agonist
15,CC1=CCC(C(C)(C)S)CC1 (stereo not drawn) [1-p-Menthene-8-thiol],Non-agonist
16,CCCO [1-propanol],Non-agonist
17,CCCCCCCCCCCO [1-undecanol],Non-agonist
18,"CCc1ncc(C)nc1CC [2,3-dietyl-5-methylpyrazine]",Non-agonist
19,"CCCC(=O)C(C)=O [2,3-hexanedione]",Agonist
20,"CC1=NC(C)SC1C (stereo not drawn) [2,4,5-trimethyl-2,5-dihydro-1,3-thiazole]",Antagonist
21,"CCCC/C=C\C=C\C=O [2,4-nonadienal, (2e,4z)-]",Non-agonist
22,"COc1cccc(OC)c1O [2,6-dimethoxyphenol]",Non-agonist

row,SMILES,Class (agonist / non-agonist / antagonist / conflicting info.) for OR2W1
1,CC(=O)C1=NCCS1 [2-Acetyl-2-thiazoline],Non-agonist
2,CC(=O)c1ccco1 [2-Furyl methyl ketone],Non-agonist
3,CCc1ccc(O)c(OC)c1 [2-Methoxy-4-ethylphenol],Non-agonist
4,COc1ccc(C)cc1O [2-Methoxy-5-methylphenol],Non-agonist
5,Cc1occc1S [2-Methyl-3-furanthiol],Non-agonist
6,CCC(S)C(C)CO (stereo not drawn) [2-Methyl-3-sulfanylpentan-1-ol],Non-agonist
7,CCC(C)COC(C)=O (stereo not drawn) [2-Methylbutyl acetate],Non-agonist
8,CC(=O)OCCc1ccccc1 [2-Phenylethyl acetate],Agonist
9,CCC(=O)C(C)S (stereo not drawn) [2-Sulfanylpentan-3-one],Non-agonist
10,CC(=O)c1cnccn1 [2-acetylpyrazine],Non-agonist
11,O=C1Cc2ccccc2O1 [2-coumaranone],Non-agonist
12,"CCCCCCC/C=C/C=O [2-decenal, (2e)-]",Non-agonist
13,CCCCCC/C=C/C=O [2-enonenal],Non-agonist
14,CCOc1nccs1 [2-ethoxythiazole],Agonist
15,CCCCCC(C)O (stereo not drawn) [2-heptanol],Agonist
16,CCCCCC(C)=O [2-heptanone],Conflicting info.
17,"CCC/C=C/C=O [2-hexenal, (2e)-]",Non-agonist
18,COc1nccnc1CC(C)C [2-isobutyl-3-methoxypyrazine],Non-agonist
19,COc1nccnc1C(C)C [2-isopropyl-3-methoxypyrazine],Non-agonist
20,CCCCCCCCCC(=O)O [Decanoic acid],Agonist
21,CCCCCCCS [Heptane-1-thiol],Agonist
22,CCCCCS [Pentane-1-thiol],Agonist

# Same assay, conditions: cited from earlier work
row,SMILES,Class (agonist / non-agonist / antagonist / conflicting info.) for OR2W1
1,CC(=O)c1ccccc1N [2'-aminoacetophenone],Non-agonist
2,"CCC(=O)C(C)=O [2,3-pentanedione]",Non-agonist
3,"Cc1ccc(O)c(C)c1 [2,4-dimethylphenol]",Non-agonist
4,"Cc1cccc(C)c1O [2,6-dimethylphenol]",Non-agonist
5,O=C(O)Cc1ccccc1 [2-Phenylacetic acid],Non-agonist
6,CCC(C)=O [2-butanone],Non-agonist
7,CCC1(O)C2(C)CCC(C2)C1(C)C (stereo not drawn) [2-ethylfenchol],Conflicting info.
8,CCCCC(C)=O [2-hexanone],Agonist
9,CCCCCCS [Hexane-1-thiol],Agonist
